From patent US20250352676A1, “N-Cyclopropyl-1-(4-(4-(Fluoro-18f)Phenyl)Pyrimidin-5-Yl)-N-Methylpiperidine- 4-Carboxamide and Uses in PET Imaging” (Emory University, priority 2022, published 2025) come the findings set out here.

Where two headings read alike, the source gives them in different places.

The target in data set [1] is T1, CYP46A1 (Rattus norvegicus, UniProt A0ACM8QFK4).
T1 construct: from tissue; host or cells: brain of living rats
Kind of data set: PET imaging and ex vivo brain studies after intravenous injection to rats. The format is in vivo. How it is done:
(§1) PET imaging studies were conducted by intravenous injection of 18F-CHL-2205 to rats. […] Greater than 99% of the brain signal was attributed to the intact parent tracer. The brain signal was substantially devoid of interference by radiometabolites. By ex vivo studies, greater than 90% of the signal in the brain was specific at 15, 30, and 45 min after injection.
(§2) CD1, 3×Tg-AD mice and respective controls (sex: female, age: 9 to 13 months), as well as rats were purchased from established commercial vendors and kept under a 12-hour light/12-hour dark cycle, with ad libitum food and water. Animals were allowed to acclimatize for at least 1 week before the start of the experimental procedures. Mice and rats were anesthetized with isoflurane and scanned in a μPET/computed tomography (CT) scanner for 60 min after tail-vein injection of 18F-CHL-2205. Data were reconstructed in user-defined time frames. Time-activity curves (TACs) were calculated with predefined regions of interest. Results are presented as area under the curve (AUC) from the respective TACs of SUVs, indicating the decay-corrected radioactivity per cubic centimeter, divided by the injected dose per gram of body weight.

The target in data set [2] is T2, CYP46A1 (Mus musculus, UniProt Q9WVK8). Kind of data set: Brain binding in Cyp46A1 knockout versus control mice. Details: from tissue; host or cells: mouse brain (Cyp46A1+/+ controls; 3xTg-AD mice and controls). The source says: A consideration in CNS-targeted PET constitutes the ability of the tracer to selectivity bind to a target protein while lacking interactions with other abundant brain proteins.

For data set [3], the system named is major CNS targets, including common G protein-coupled receptors, ion channels, enzymes, and transporters. Kind of data set: Pharmacological screening on major CNS targets. Particulars: testing concentration of 10 μM.
Data set [4] addresses T3, CYP46A1 (Homo sapiens, UniProt Q9Y6A2). Kind of data set: Clinical PET study in healthy volunteers. In kind it is in vivo. More on the design: from tissue; host or cells: brain of living healthy volunteers. Particulars: CYP46A1-rich regions. How it is done: Eight healthy participants underwent a PET scan with 18F-CHL-2205, followed by a magnetic resonance imaging (MRI) scan for anatomical orientation. Because of the physical half-life of fluorine-18 (109.8 min), the tracer was produced on the day of the experiment in a designated hot cell that provided shielding from radiation exposure and was equipped with an automated synthesis module. PET scans were performed for a duration of 90 min, and the data were subsequently reconstructed to allow the assessment of tracer uptake as a surrogate for CYP46A1 abundancy and cholesterol metabolism.
Experiments were performed to determine whether CYP46A1-targeted PET was sensitive to sex differences in brain cholesterol metabolism. […] Conversely, there was no difference in tracer uptake for low-target density regions such as the cerebellum and brainstem. These findings imply that considerable sex differences in brain cholesterol metabolism via CYP46A1 exist in humans.
An open-label clinical study to evaluate the tolerability, safety, and tracer performance characteristics of 18F-CHL-2205 in healthy volunteers (four men and four women, 22 to 31 years of age) was conducted. […] Volumes of distribution were further determined by Logan graphical analysis and were used to calculate binding potentials. […]

Data set [5] in a line: Incubation with mouse liver microsomes (radiodefluorination). In kind it is in vitro ADME.
Data set [6] in a line: Incubation with human liver microsomes (radiodefluorination). In kind it is in vitro ADME.
In data set [7] the target is T2, CYP46A1. Kind of data set: PET imaging in 3xTg-AD mice and controls. The format is in vivo. More on the design: from tissue; host or cells: mouse brain (Cyp46A1+/+ controls; 3xTg-AD mice and controls). Particulars: baseline, intravenous administration. How it is done:
Tracer binding was assessed and validated in the 3xTg-AD mouse model. […] Hippocampal uptake of the CYP46A1 tracer was compared between 3xTg-AD mice and respective controls.
as §2

Data set [8] addresses T2, CYP46A1. Kind of data set: Saturation binding studies with brain homogenates. More on the design: species or system rodent. How it is done:
Experiments were performed to determine whether a targeted PET imaging probe would allow the quantification of cholesterol metabolism in the living brain, ultimately paving the way for mechanistic studies on brain cholesterol metabolism in humans. […] The tracer distribution matched closely with the Allen Brain Atlas distribution of CYP46A1 expression data in the mouse brain. Quantification of CYP46A1 by Western blot analysis in the same brain regions confirmed that tracer binding patterns were in concert with CYP46A1 expression across all tested brain regions. Saturation binding studies were performed to determine the dissociation constant (KD) of the probe as well as to assess the amount of available CYP46A1 protein (Bmax) in selected brain regions.

Data set [9] is classed as in vitro ADME, VHP. How it is done: as §1
Data set [10] can be described thus: Incubation with rat liver microsomes (radiodefluorination). The format is in vitro ADME.
A further data set has as its target T4, human CYP46A1 (hCYP46A1) (Homo sapiens, UniProt Q9Y6A2).
T4 construct: expressed in transfected cells; host or cells: HEK cells (HEK-CYP46A1)
Kind of data set: Cell uptake studies in HEK cells overexpressing hCYP46A1. In kind it is cell-based. How it is done:
Cell uptake studies were conducted with transfected human embryonic kidney (HEK) cells overexpressing human CYP46A1 (hCYP46A1) and respective controls.
Cell uptake assays were conducted using hCYP46A1 enzyme-HEK cell line (HEK-CYP46A1) and HEK control cells were cultured in Dulbecco's modified Eagle's medium (DMEM) supplemented with 10% fetal bovine serum and antibiotics (0.1 mg/ml streptomycin and 100 IU/ml penicillin). Cells were kept under standard conditions at 37° C. and 5% CO2 and subsequently subpassaged using a solution of 0.25% trypsin and 0.02% EDTA. For cell uptake measurements, HEK-CYP46A1 and HEK control cells were seeded into a 24-well plate at a density of 2×10^5 cells per well the day before the experiment. The medium was replaced with fresh DMEM including ^18F-CHL-2205 (ca. 74 kBq per well) and incubated at 37° C. for 15, 30, and 45 min. The supernatant was collected, and the cells were washed twice with cold 1×phosphate-buffered salinc (PBS) and then harvested by adding 200 μl of 1N NaOH followed by additional two times rinsing with 1×PBS. The blocking assay was performed with the HEK-CYP46A1 cells. […] Supernatant and cell suspensions including 1×PBS from each wash step were collected and then measured using a gamma counter, whereas cell uptake was expressed as the percentage of the added dose after decay correction.

The next data set in a line: Dosimetry experiments. The format is in vivo.
In data set [11] the target is T3, CYP46A1. Kind of data set: Competitive displacement of 18F-CHL-2205. The format is binding. For orientation: Displacement assays read how much labelled ligand stays bound in the presence of the test substance.
For data set [12], the target named is T5, CYP46A1 (Macaca mulatta, UniProt I2CYF7). Kind of data set: Target occupancy PET study in rhesus monkeys. In kind it is in vivo. Particulars: rhesus monkey; dose of 0.9 μmol/kg intravenous, all regions. Details: from tissue; host or cells: brain of living rhesus monkeys.
Method: Four rhesus monkeys (4.8 to 9.3 kg) were anesthetized by intramuscular injection of ketamine (10 mg/kg) and then put on the MRI scanning bed in the supine position. Whole-brain images were acquired. For PET, the subjects were initially anesthetized with ketamine (10 mg/kg, intramuscularly), put on the scanning bed, and maintained under anesthesia with 2% isoflurane and 98% oxygen. All rhesus monkeys were supine, and a stereotactic frame was used to fix the position of the head. […] PET/CT and MR images were co-registered. TACs were derived from the respective volumes of interest and were presented as SUVs, which were decay-corrected to the time of radioligand injection. Whole-blood samples were collected from an arterial catheter to measure radioactivity in whole blood and plasma. […]
Then, the mixture was injected into a high-performance liquid chromatography (HPLC) system equipped with a semipreparative IIPLC column and an ultraviolet detector with the wavelength set at 254 nm. […] The HPLC fractions were collected at 30-s intervals for 13 min; each fraction was counted with automatic gamma well counter. […] Tissue volumes of distribution (VT) and non-displaceable binding potential (BPND) values were determined from a two-tissue compartment model, with metabolite-corrected arterial input function.
For data set [13], the target named is T5, CYP46A1. Kind of data set: In vitro autoradiography of NHP brain. Details: from tissue; host or cells: NHP brain sections. Particulars: excess blocker. In kind it is binding, NHPs. How it is done:
PET imaging experiments were conducted in non-human primates (NHPs). Consistent with observations from rodent data, the signal intensity of tracer binding correlated with high abundancy regions for CYP46A1, including the putamen, caudate, and limbic cortical regions such as superficial layers of temporal, insular, and cingulate cortex, as evidenced by in vitro autoradiograms of the brain.

T1 sequence (A0ACM8QFK4 29-500): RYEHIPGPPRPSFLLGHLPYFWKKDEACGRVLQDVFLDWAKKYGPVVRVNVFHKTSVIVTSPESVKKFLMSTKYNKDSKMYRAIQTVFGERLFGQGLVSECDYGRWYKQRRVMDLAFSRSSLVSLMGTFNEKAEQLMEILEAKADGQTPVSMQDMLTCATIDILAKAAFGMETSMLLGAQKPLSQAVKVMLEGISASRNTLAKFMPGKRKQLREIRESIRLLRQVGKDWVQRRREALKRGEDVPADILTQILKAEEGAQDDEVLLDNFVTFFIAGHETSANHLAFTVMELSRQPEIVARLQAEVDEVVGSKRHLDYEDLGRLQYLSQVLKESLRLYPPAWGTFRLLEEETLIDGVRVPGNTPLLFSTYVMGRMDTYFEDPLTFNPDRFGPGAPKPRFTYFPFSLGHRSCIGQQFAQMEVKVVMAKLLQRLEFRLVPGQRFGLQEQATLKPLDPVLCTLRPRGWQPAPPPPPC
T2 sequence (Q9WVK8 whole entry): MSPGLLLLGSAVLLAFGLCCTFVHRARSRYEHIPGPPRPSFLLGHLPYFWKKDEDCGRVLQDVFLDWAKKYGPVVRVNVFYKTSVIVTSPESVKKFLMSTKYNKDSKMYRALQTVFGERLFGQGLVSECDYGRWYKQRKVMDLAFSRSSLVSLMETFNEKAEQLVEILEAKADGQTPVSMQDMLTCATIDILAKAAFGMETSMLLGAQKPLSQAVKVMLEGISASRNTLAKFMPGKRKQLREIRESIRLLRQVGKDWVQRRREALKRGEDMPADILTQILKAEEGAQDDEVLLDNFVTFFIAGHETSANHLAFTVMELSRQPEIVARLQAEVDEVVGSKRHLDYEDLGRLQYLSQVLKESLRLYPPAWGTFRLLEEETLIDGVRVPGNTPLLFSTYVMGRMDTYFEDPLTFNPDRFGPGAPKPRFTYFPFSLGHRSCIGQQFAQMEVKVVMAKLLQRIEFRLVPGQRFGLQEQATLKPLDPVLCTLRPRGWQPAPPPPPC
T3 sequence (Q9Y6A2 whole entry): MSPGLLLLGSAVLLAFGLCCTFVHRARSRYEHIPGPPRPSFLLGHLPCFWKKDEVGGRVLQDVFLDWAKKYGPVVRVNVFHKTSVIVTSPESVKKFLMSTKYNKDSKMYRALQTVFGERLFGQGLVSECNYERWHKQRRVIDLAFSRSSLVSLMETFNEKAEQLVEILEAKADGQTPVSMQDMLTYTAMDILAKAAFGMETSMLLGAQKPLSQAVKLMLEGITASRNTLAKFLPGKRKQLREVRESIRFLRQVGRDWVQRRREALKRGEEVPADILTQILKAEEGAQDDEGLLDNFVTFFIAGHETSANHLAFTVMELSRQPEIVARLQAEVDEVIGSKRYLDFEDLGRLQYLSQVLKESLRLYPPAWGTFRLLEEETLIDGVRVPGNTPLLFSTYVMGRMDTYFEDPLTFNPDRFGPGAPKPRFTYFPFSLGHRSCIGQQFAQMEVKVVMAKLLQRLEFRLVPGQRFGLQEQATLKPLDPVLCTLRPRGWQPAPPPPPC
T4 sequence (Q9Y6A2 whole entry): as above
T5 sequence (I2CYF7 29-500): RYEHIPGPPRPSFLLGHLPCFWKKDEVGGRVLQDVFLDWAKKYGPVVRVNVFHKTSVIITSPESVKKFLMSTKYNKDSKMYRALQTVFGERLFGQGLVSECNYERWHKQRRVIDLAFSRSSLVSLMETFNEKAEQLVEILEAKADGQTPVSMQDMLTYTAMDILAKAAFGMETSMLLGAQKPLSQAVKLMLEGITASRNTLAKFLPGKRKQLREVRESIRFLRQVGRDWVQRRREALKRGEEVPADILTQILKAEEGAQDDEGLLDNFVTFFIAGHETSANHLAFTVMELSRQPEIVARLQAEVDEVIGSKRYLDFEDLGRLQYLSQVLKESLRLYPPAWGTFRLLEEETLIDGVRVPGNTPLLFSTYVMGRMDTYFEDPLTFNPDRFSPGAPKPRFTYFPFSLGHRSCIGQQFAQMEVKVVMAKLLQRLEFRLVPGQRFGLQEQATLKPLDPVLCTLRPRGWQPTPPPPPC

Take `CN(C(=O)C1CCN(c2cncnc2-c2ccc([18F])cc2)CC1)C1CC1` [18F-CHL-2205, N-cyclopropyl-1-(4-(4-(fluoro-18F)phenyl)pyrimidin-5-yl)-N-methylpiperidine-4-carboxamide]: the “brain signal attributed to the intact parent tracer” value on CYP46A1 [1] (brain) is “Greater than 99%”. The “specific signal in the brain” value at CYP46A1 [1] (ex vivo studies, 15, 30, and 45 min after injection) is “greater than 90%”. Further, the “brain uptake after systemic administration” value on CYP46A1 [1] (rats, intravenous injection, PET) is recorded as “rapid tracer uptake into the brain”. Besides, the “tracer binding in brains of Cyp46A1−/− animals versus control” value on CYP46A1 [2] (Cyp46A1−/− vs Cyp46A1+/+ mice) was “signal diminished”. The off-target activity result in data set [3] is recorded as “no off-target activity”. Besides, on CYP46A1 [4], the “SUV15-30 in the caudate and putamen, women versus men” value was “higher in women than in men”. Further, the “stability against radio defluorination” value in data set [5], in data set [6], in data set [9] and in [10] was “stable against radio defluorination” each time. Further, the “hippocampal time-activity curves (TACs) in 3xTg-AD mice versus controls” value at CYP46A1 [7] was “consistently higher”. The “Bmax (amount of available CYP46A1 protein)” value at CYP46A1 [8] (cerebellum) stood at 21.9 fmol/g; at CYP46A1 [8] (striatum) it was 117.3 fmol/g. The “cell uptake in transfected cells compared to controls” value at human CYP46A1 (hCYP46A1) (HEK cells overexpressing hCYP46A1 vs HEK controls) is “fivefold increase”. The effective dose in “Dosimetry experiments” was 0.012 mSv/MBq.

As for `O=C(c1cccnc1-c1ccncc1)N1CCC(O)(Cc2ccccc2)CC1` [soticlestat], the “displacement of 18F-CHL-2205” value at CYP46A1 [11] was “competitive displacement”. For the same compound, the “tracer binding in control brains under blockade” value on CYP46A1 [2] (excess dose, Cyp46A1+/+ brains) is on record as “reduced to the signal observed in Cyp46A1−/− animals”. The receptor occupancy at 0.9 µmol/kg at CYP46A1 [12] is over 90%. Further, the “tracer signal of the transfected cell population on co-incubation” value at human CYP46A1 (hCYP46A1) (escalating doses, HEK-CYP46A1 cells, 18F-CHL-2205 tracer) is reported as “attenuated in a dose-dependent manner”. For the same compound, on CYP46A1 [13], the “autoradiography signal on co-incubation” value is recorded as “relative signal reduction”.

As to `C[C@@H](c1ncncc1F)[C@](O)(Cn1cncn1)c1ccc(F)cc1F` [voriconazole], the “displacement of 18F-CHL-2205” value on CYP46A1 [11] is listed as “competitive displacement”.
